Source: US5382586A, “Aryl (or heteroaryl)piperazinylalkylazole derivatives, their preparation and their application as medicaments” (priority 1991, dated 1995)

Legend:
[1] = test system: conditioned avoidance response in male Wistar rats; assay: conditioned avoidance response test (inhibition of the conditioned avoidance response; anxiolytic/tranquillising activity); assay type: in vivo, rat (male Wistar); details: rat; for Activity % (inhibition of the conditioned avoidance response): D = 80 mg/kg, p.o., 45 min before test; for ED50: po, 0.75 h
Method: Male Wistar rats weighing 200 grammes which have been trained to jump over a barrier in an avoidance and escape cage (shuttle box) (Letica, reference LI 910 and LI 2700) within 30 seconds of their being introduced into the cage are used in this test.
The products having an anxiolytic or tranquillising activity suppress the conditioned avoidance response.
Training: day one: 11 trials at 3 minute intervals. Electric shock to the paws after 30 seconds (5 mA, 0.1 s, 10 s).
Days two and three: 2 trials per day, with the selected rats only [sum of the scores for the first day (with the exception of the first trial)>14].
Test day: groups formed by selected rats. Oral administration of the product or the vehicle 45 minutes before the start of the study.

[2] = test system: norepinephrine-induced death in rats; assay: norepinephrine antagonism test in rats (antihypertensive activity); assay type: in vivo, rat (male Wister); details: for Activity % (norepinephrine antagonistic antihypertensive activity): D = 40 mg/kg, i.p., rat, norepinephrine 1.25 mg/kg i.v. after 2 hours; for ED50: Rattus norvegicus, ip, 2 h, read-out: ED50 (norepinephrine antagonistic antihypertensive activity)
Method: This activity is manifested by the protection of animals before death induced by an intravenous injection of norepinephrine, which produces a hypertensive attack in rats.
Male Wister rats weighing 200 grammes are used in this test. The product to be studied is administered intraperitoneally and 1.25 mg/kg (i.v.) of norepinephrine are administered after 2 hours.
The initial administration dose in these studies is 40 mg/kg (i.p.).

[3] = test system: mice, abstinence syndrome induced by cocaine, diazepam, alcohol or nicotine; assay: light box/dark box test: inhibition of the abstinence syndrome; assay type: in vivo, mouse; parameters: Time in box, dark (D) / Latent period L-D: unit not given here
Method: The light box/dark box test described by B. Costall et al. (J. Phar. Pharmacol., 1988, 40: 494-500) is used. The mouse is placed in the light zone of a box divided into two compartments, one brightly illuminated, the light box, and the other with little illumination, the dark box.
1) The number of times the mouse stands up on the hind paws in each compartment during a 5 minute period is counted (see Column 1 of Table V).
2) The activity in each compartment is given by counting the number of crossings through the squares which form the divisions of each compartment (see Column 2 of Table V).
3) The time passed in the dark box during the 5 minute counting period is determined (see Column 3 of Table 5).
4) The initial latent period is determined, that is to say the time which elapses after the animal is placed in the light box, at the start of the test, before it enters the dark box (see Column 4 of Table 5).
1) Dependency on a given treatment (diazepam, cocaine, alcohol or nicotine) employing daily administration over a period of 7 or 14 days.
Diazepam: 10 mg/kg i.p. twice per day over a period of 7 days.
Cocaine: 1 mg/kg i.p. over a period of 14 days.
Alcohol: Administered at 8% weight/volume in the drinking water over a period of 14 days. Nicotine: 0.1 mg/kg i.p. twice per day over a period of 7 days.
3) Other different groups receive, in addition to diazepam, cocaine, alcohol or nicotine, a concomitant treatment with products which are the subject of the present invention and, by way of comparison, with buspirone or ipsapirone.
The product described and the doses tested were: 4,5-dichloro-2-methyl-1-{4-[4-(2-pyrimidinyl)-1-piperazinyl]-butyl}-1H-imidazole citrate.
1 μg/kg p.o. twice per day.

[4] = 24 h after stopping alcohol (alone, or with the named product; Ex. 42 at 1 μg/kg p.o. twice per day)
[5] = 24 h after stopping cocaine (alone, or with the named product; Ex. 42 at 1 μg/kg p.o. twice per day)
[6] = 24 h after stopping diazepam (alone, or with the named product; Ex. 42 at 1 μg/kg p.o. twice per day)
[7] = 24 h after stopping nicotine (alone, or with the named product; Ex. 42 at 1 μg/kg p.o. twice per day)
[8] = during long-term treatment with the agent (doses as E20)
[9] = during long-term treatment with the agent (doses as E20), 5 minute counting period
[10] = during long-term treatment with the agent (doses as E20), number of crossings
[11] = during long-term treatment: cocaine 1 mg/kg i.p. 14 days, diazepam 10 mg/kg i.p. twice per day 7 days, alcohol 8% w/v drinking water 14 days, nicotine 0.1 mg/kg i.p. twice per day 7 days

## Cc1cc(C(F)(F)F)n(CCCCN2CCN(c3ncccn3)CC2)n1 [Example 7]
[1]
  Activity % (inhibition of the conditioned avoidance response): 74%
  ED50: 29 mg/kg
[2]
  Activity % (norepinephrine antagonistic antihypertensive activity): 0%

## Cc1nc(Cl)c(Cl)n1CCCCN1CCN(c2nsc3ccccc23)CC1 [Example 44]
[1]
  Activity % (inhibition of the conditioned avoidance response): 95%
[2]
  Activity % (norepinephrine antagonistic antihypertensive activity): 100%

## COc1ccccc1N1CCN(CCn2cc(Cl)cn2)CC1 [Example 41]
[1]
  Activity % (inhibition of the conditioned avoidance response): 52%
[2]
  Activity % (norepinephrine antagonistic antihypertensive activity): 75%
  ED50: 5 mg/kg

## COC(=O)c1cn(CCCCN2CCN(c3ncccn3)CC2)cn1 [Example 14]
[1]
  Activity % (inhibition of the conditioned avoidance response): 38%
[2]
  Activity % (norepinephrine antagonistic antihypertensive activity): 0%

## Cc1nc(Cl)c(Cl)n1CCCCN1CCN(c2ncccn2)CC1 [Example 11, 4,5-dichloro-2-methyl-1-{4-[4-(2-pyrimidinyl)-1-piperazinyl]-butyl}-1H-imidazole]
[1]
  Activity % (inhibition of the conditioned avoidance response): 82%
[2]
  Activity % (norepinephrine antagonistic antihypertensive activity): 0%

## O=C1c2ccccc2S(=O)(=O)N1CCCCN1CCN(c2ncccn2)CC1 [Ipsapirone]
[1]
  Activity % (inhibition of the conditioned avoidance response): 98%
[3]; [4]
  Activity within 5 min period, dark box (D): 80
  Activity within 5 min period, light box (L): 36
  Latent period L-D: 10
  Number of times standing erect within 5 min. period, dark box (D): 75
  Number of times standing erect within 5 min. period, light box (L): 21
  Time in box, dark (D): 35
[3]; [5]
  Activity within 5 min period, dark box (D): 85
  Activity within 5 min period, light box (L): 18
  Latent period L-D: 8
  Number of times standing erect within 5 min. period, dark box (D): 89
  Number of times standing erect within 5 min. period, light box (L): 11
  Time in box, dark (D): 62
[3]; [6]
  Activity within 5 min period, dark box (D): 88
  Activity within 5 min period, light box (L): 17
  Latent period L-D: 8
  Number of times standing erect within 5 min. period, dark box (D): 82
  Number of times standing erect within 5 min. period, light box (L): 15
  Time in box, dark (D): 90
[3]; [7]
  Activity within 5 min period, dark box (D): 98
  Activity within 5 min period, light box (L): 18
  Latent period L-D: 3
  Number of times standing erect within 5 min. period, dark box (D): 84
  Number of times standing erect within 5 min. period, light box (L): 9
  Time in box, dark (D): 70
[3]; induced by alcohol
  abstinence syndrome: inhibits the abstinence syndrome
[3]; induced by diazepam, cocaine and nicotine
  abstinence syndrome: maintains the abstinence syndrome

## c1cnc(N2CCN(CCCCn3cnc4ccccc43)CC2)nc1 [Example 16, 1-{4-[4-(2-pyrimidinyl)-1-piperazinyl]-butyl}-1H-benzimidazole]
[1]
  Activity % (inhibition of the conditioned avoidance response): 100%
  ED50: 6.1 mg/kg
[2]
  Activity % (norepinephrine antagonistic antihypertensive activity): 0%

## Cn1ccnc1N1CCN(CCCCn2cccn2)CC1 [Example 40]
[1]
  Activity % (inhibition of the conditioned avoidance response): 28%
[2]
  Activity % (norepinephrine antagonistic antihypertensive activity): 0%

## COc1ccc(N2CCN(CCCCn3cccc3)CC2)cc1 [Example 32]
[1]
  Activity % (inhibition of the conditioned avoidance response): 83%
  ED50: 50 mg/kg
[2]
  Activity % (norepinephrine antagonistic antihypertensive activity): 0%

## O=C1CC2(CCCC2)CC(=O)N1CCCCN1CCN(c2ncccn2)CC1 [Buspirone]
[1]
  Activity % (inhibition of the conditioned avoidance response): 99%
[3]; [4]
  Activity within 5 min period, dark box (D): 75
  Activity within 5 min period, light box (L): 15
  Latent period L-D: 7
  Number of times standing erect within 5 min. period, dark box (D): 80
  Number of times standing erect within 5 min. period, light box (L): 18
  Time in box, dark (D): 62
[3]; [5]
  Activity within 5 min period, dark box (D): 90
  Activity within 5 min period, light box (L): 18
  Latent period L-D: 2
  Number of times standing erect within 5 min. period, dark box (D): 98
  Number of times standing erect within 5 min. period, light box (L): 10
  Time in box, dark (D): 70
[3]; [6]
  Activity within 5 min period, dark box (D): 100
  Activity within 5 min period, light box (L): 12
  Latent period L-D: 2
  Number of times standing erect within 5 min. period, dark box (D): 88
  Number of times standing erect within 5 min. period, light box (L): 9
  Time in box, dark (D): 72
[3]; [7]
  Activity within 5 min period, dark box (D): 85
  Activity within 5 min period, light box (L): 20
  Latent period L-D: 8
  Number of times standing erect within 5 min. period, dark box (D): 80
  Number of times standing erect within 5 min. period, light box (L): 12
  Time in box, dark (D): 65
[3]; induced by diazepam and cocaine
  abstinence syndrome: maintains the abstinence syndrome
[3]; treatment with alcohol and nicotine stopped
  abstinence syndrome: an abstinence syndrome, i.e. anxiogenesis, no longer exists
[3]; treatment with alcohol stopped
  inhibition of anxiogenic response parameters: significantly inhibits only a few anxiogenic response parameters

## Cc1cc2ncn(CCCCN3CCN(c4ncccn4)CC3)c2cc1C [Example 26]
[1]
  Activity % (inhibition of the conditioned avoidance response): 88%
  ED50: 34.5 mg/kg
[2]
  Activity % (norepinephrine antagonistic antihypertensive activity): 0%

## c1cnc(N2CCN(CCCCn3cncn3)CC2)nc1 [Example 23]
[1]
  Activity % (inhibition of the conditioned avoidance response): 100%
  ED50: 6.3 mg/kg
[2]
  Activity % (norepinephrine antagonistic antihypertensive activity): 50%

## CN1CCC[C@H]1c1cccnc1 [Nicotine]
[3]; mouse, in vivo
  Activity within 5 min period, dark box (D): 25
  Activity within 5 min period, light box (L): 70
  Latent period L-D: 26
  Number of times standing erect within 5 min. period, dark box (D): 23
  Number of times standing erect within 5 min. period, light box (L): 66
  Time in box, dark (D): 25
[3]; mouse, in vivo, po
  Activity within 5 min period, dark box (D): 147
  Activity within 5 min period, light box (L): 14
  Latent period L-D: 2
  Number of times standing erect within 5 min. period, dark box (D): 125
  Number of times standing erect within 5 min. period, light box (L): 10
  Time in box, dark (D): 78

## Clc1cccc(Cl)c1N=C1NCCN1 [Clonidine, reference compound]
[2]
  Activity % (norepinephrine antagonistic antihypertensive activity): 100%
  ED50: 1.58 mg/kg

## COC(=O)[C@H]1[C@@H](OC(=O)c2ccccc2)C[C@@H]2CC[C@H]1N2C [Cocaine]
[3]; [5]
  Activity within 5 min period, dark box (D): 149
  Activity within 5 min period, light box (L): 10
  Latent period L-D: 2
  Number of times standing erect within 5 min. period, dark box (D): 122
  Number of times standing erect within 5 min. period, light box (L): 7
  Time in box, dark (D): 83
[3]; [8]
  Latent period L-D: 18
  Number of times standing erect within 5 min. period, dark box (D): 38
[3]; [9]
  Time in box, dark (D): 30
[3]; [10]
  Activity within 5 min period, dark box (D): 30
  Activity within 5 min period, light box (L): 68
[3]; [11]
  Number of times standing erect within 5 min. period, light box (L): 60

## c1ccc(CC2=NCCN2)cc1 [Tolazoline, reference compound]
[2]
  Activity % (norepinephrine antagonistic antihypertensive activity): 100%
  ED50: 2.97 mg/kg

## CN1C(=O)CN=C(c2ccccc2)c2cc(Cl)ccc21 [Diazepam]
[3]; [6]
  Activity within 5 min period, dark box (D): 164
  Activity within 5 min period, light box (L): 5
  Latent period L-D: 1.8
  Number of times standing erect within 5 min. period, dark box (D): 146
  Number of times standing erect within 5 min. period, light box (L): 5
  Time in box, dark (D): 80
[3]; [8]
  Latent period L-D: 27
  Number of times standing erect within 5 min. period, dark box (D): 25
[3]; [9]
  Time in box, dark (D): 25
[3]; [10]
  Activity within 5 min period, dark box (D): 24
  Activity within 5 min period, light box (L): 73
[3]; [11]
  Number of times standing erect within 5 min. period, light box (L): 70

## CCO [Alcohol]
[3]; [4]
  Activity within 5 min period, dark box (D): 167
  Activity within 5 min period, light box (L): 6
  Latent period L-D: 2
  Time in box, dark (D): 84
[3]; [8]
  Latent period L-D: 28
[3]; [9]
  Time in box, dark (D): 28
[3]; [10]
  Activity within 5 min period, dark box (D): 28
  Activity within 5 min period, light box (L): 80
[3]; mouse, in vivo
  Number of times standing erect within 5 min. period, dark box (D): 22
  Number of times standing erect within 5 min. period, light box (L): 72
[3]; mouse, in vivo, po
  Number of times standing erect within 5 min. period, dark box (D): 147
  Number of times standing erect within 5 min. period, light box (L): 5
